Reference: a compilation of properties of binary mixtures (doi:10.2298/jsc190413047v)

Test: xn = mol fraction of the nth substance listed
Settings: 100 kPa

CCCC[n+]1ccn(C)c1.O=S(=O)([N-]S(=O)(=O)C(F)(F)F)C(F)(F)F + O=C1CCCO1
x2 = 0
Settings | electrical conductivity [S/m] | viscosity [mPa·s]
293.15 K | 0.337 | 62.1
308.15 K | 0.552 | 33.65
313.15 K | 0.64 | 28.28
318.15 K | 0.733 | 23.91
323.15 K | 0.835 | 20.64

CCCn1cc[n+](C)c1C.O=S(=O)([N-]S(=O)(=O)C(F)(F)F)C(F)(F)F + O=C1CCCO1
electrical conductivity [S/m]
Settings | 293.15 K | 298.15 K | 303.15 K | 308.15 K | 313.15 K | 318.15 K | 323.15 K
x2 = 0 | 0.196 | – | 0.338 | 0.417 | 0.503 | 0.59 | 0.687
x2 = 0.1289 | 0.24 | 0.312 | – | 0.479 | 0.578 | 0.678 | 0.788
x2 = 0.2006 | – | 0.351 | 0.444 | – | 0.65 | 0.759 | –
x2 = 0.3027 | 0.343 | 0.428 | 0.537 | 0.646 | 0.779 | 0.907 | 1.02
x2 = 0.3969 | 0.451 | 0.539 | 0.657 | 0.789 | 0.935 | 1.09 | 1.23
x2 = 0.4952 | 0.593 | 0.708 | 0.844 | 0.995 | 1.16 | – | 1.46
x2 = 0.5969 | 0.797 | 0.927 | 1.07 | 1.21 | 1.38 | 1.54 | 1.7
x2 = 0.6992 | – | 1.13 | 1.27 | – | – | 1.74 | 1.92
x2 = 0.8002 | – | 1.31 | 1.45 | 1.59 | 1.73 | – | 2.07
x2 = 0.8508 | 1.25 | 1.38 | – | 1.63 | – | 1.91 | 2.06
x2 = 0.8999 | – | 1.32 | 1.44 | 1.55 | – | 1.81 | 1.94
x2 = 0.9495 | 0.875 | 0.954 | 1.03 | – | 1.2 | 1.29 | 1.39

CCCCCC[n+]1ccn(C)c1.O=S(=O)([N-]S(=O)(=O)C(F)(F)F)C(F)(F)F + O=C1CCCO1
electrical conductivity [S/m]
Settings | x2 = 0 | x2 = 0.1076 | x2 = 0.2973 | x2 = 0.4956 | x2 = 0.6996 | x2 = 0.8001 | x2 = 0.8456 | x2 = 0.9001 | x2 = 0.9493
293.15 K | 0.176 | 0.21 | – | 0.47 | 0.819 | 1.07 | 1.13 | – | –
298.15 K | 0.221 | – | 0.362 | 0.556 | 0.932 | 1.19 | 1.25 | 1.23 | –
303.15 K | – | 0.319 | 0.431 | – | 1.05 | 1.31 | 1.36 | – | 0.896
308.15 K | – | – | – | 0.751 | 1.17 | 1.44 | 1.49 | – | 0.968
313.15 K | 0.398 | – | – | 0.863 | – | 1.57 | – | 1.57 | 1.04
318.15 K | 0.467 | 0.539 | – | 0.979 | 1.46 | 1.71 | – | 1.69 | –
323.15 K | – | – | – | 1.11 | 1.61 | – | – | 1.8 | 1.17

O=C1CCCCO1 + CCCC[n+]1ccn(C)c1.O=S(=O)([N-]S(=O)(=O)C(F)(F)F)C(F)(F)F
electrical conductivity [S/m]
Settings | 293.15 K | 298.15 K | 303.15 K | 308.15 K | 313.15 K | 318.15 K | 323.15 K
x2 = 0.0532 | 0.167 | 0.18 | 0.195 | – | 0.225 | 0.244 | –
x2 = 0.1004 | 0.395 | – | – | – | 0.553 | 0.595 | 0.636
x2 = 0.1504 | – | 0.658 | – | 0.779 | 0.848 | 0.924 | –
x2 = 0.1999 | 0.655 | 0.725 | 0.797 | 0.87 | 0.952 | – | –
x2 = 0.2988 | 0.67 | 0.744 | 0.822 | – | 0.984 | 1.07 | 1.16
x2 = 0.4006 | – | – | 0.741 | 0.818 | 0.905 | 0.99 | 1.08
x2 = 0.5005 | 0.522 | – | 0.669 | 0.749 | 0.827 | 0.92 | 1.01
x2 = 0.5999 | 0.411 | – | 0.559 | 0.637 | 0.72 | 0.815 | 0.928
x2 = 0.7214 | 0.385 | 0.453 | 0.532 | – | 0.697 | 0.789 | –
x2 = 0.8475 | – | 0.418 | 0.495 | 0.575 | 0.658 | 0.754 | 0.858
x2 = 0.9003 | 0.34 | 0.412 | 0.484 | 0.563 | 0.646 | 0.745 | 0.846

CCCC[n+]1ccn(C)c1.O=S(=O)([N-]S(=O)(=O)C(F)(F)F)C(F)(F)F + O=C1CCCCO1
x1 = 1
Settings | electrical conductivity [S/m]
293.15 K | 0.337
303.15 K | 0.472
308.15 K | 0.552
313.15 K | 0.64
323.15 K | 0.835

CCCC[N+]1(C)CCCC1.O=S(=O)([N-]S(=O)(=O)C(F)(F)F)C(F)(F)F + O=C1CCCO1
Settings | electrical conductivity [S/m] | viscosity [mPa·s]
298.15 K, x2 = 0 | 0.277 | 76.7
298.15 K, x2 = 0.1075 | 0.329 | 58.5
298.15 K, x2 = 0.2019 | 0.394 | 44.4
298.15 K, x2 = 0.3004 | 0.468 | 34.2
298.15 K, x2 = 0.3996 | 0.554 | 24.5
298.15 K, x2 = 0.5044 | 0.726 | 16.91
298.15 K, x2 = 0.5999 | 0.953 | 12.03
298.15 K, x2 = 0.7009 | 1.24 | 8.13
298.15 K, x2 = 0.7997 | 1.47 | 5.31
298.15 K, x2 = 0.8509 | 1.55 | –
298.15 K, x2 = 0.9 | 1.46 | 3.32
298.15 K, x2 = 0.9498 | 1.12 | –
303.15 K, x2 = 0 | 0.338 | 61.7
303.15 K, x2 = 0.1075 | 0.381 | 47.8
303.15 K, x2 = 0.3004 | 0.545 | 28.4
303.15 K, x2 = 0.3996 | 0.654 | 20.78
303.15 K, x2 = 0.5044 | 0.818 | 14.5
303.15 K, x2 = 0.5999 | 1.08 | 10.43
303.15 K, x2 = 0.7009 | 1.37 | 7.18
303.15 K, x2 = 0.7997 | 1.63 | 4.78
303.15 K, x2 = 0.8509 | 1.72 | –
303.15 K, x2 = 0.9 | 1.59 | 3.04
303.15 K, x2 = 0.9498 | 1.22 | –
308.15 K, x2 = 0 | 0.412 | 50.5
308.15 K, x2 = 0.2019 | 0.545 | 30.6
308.15 K, x2 = 0.3996 | 0.758 | 17.56
308.15 K, x2 = 0.5044 | 0.92 | 12.58
308.15 K, x2 = 0.5999 | 1.21 | 9.19
308.15 K, x2 = 0.7009 | 1.52 | 6.39
308.15 K, x2 = 0.7997 | 1.8 | 4.35
308.15 K, x2 = 0.8509 | 1.89 | –
308.15 K, x2 = 0.9 | 1.72 | 2.79
313.15 K, x2 = 0 | 0.491 | 41.7
313.15 K, x2 = 0.1075 | 0.538 | 32.9
313.15 K, x2 = 0.2019 | 0.621 | 26.1
313.15 K, x2 = 0.3004 | 0.736 | 20.38
313.15 K, x2 = 0.3996 | 0.865 | 15.37
313.15 K, x2 = 0.5044 | 1.02 | 11.12
313.15 K, x2 = 0.5999 | 1.34 | 8.16
313.15 K, x2 = 0.7997 | 1.97 | 3.96
313.15 K, x2 = 0.8509 | 2.06 | –
313.15 K, x2 = 0.9 | 1.85 | 2.57
318.15 K, x2 = 0 | 0.579 | 34.7
318.15 K, x2 = 0.1075 | 0.616 | 27.6
318.15 K, x2 = 0.3004 | 0.812 | 17.43
318.15 K, x2 = 0.3996 | 0.971 | 13.26
318.15 K, x2 = 0.5044 | 1.15 | 9.7
318.15 K, x2 = 0.5999 | 1.45 | 7.2
318.15 K, x2 = 0.7009 | 1.83 | 5.14
318.15 K, x2 = 0.7997 | 2.14 | 3.6
318.15 K, x2 = 0.9 | 1.99 | 2.38
323.15 K, x2 = 0 | 0.672 | 29.5
323.15 K, x2 = 0.1075 | 0.713 | 23.1
323.15 K, x2 = 0.2019 | 0.785 | 19.22
323.15 K, x2 = 0.3996 | 1.08 | 11.55
323.15 K, x2 = 0.5044 | 1.28 | 8.62
323.15 K, x2 = 0.7997 | 2.31 | 3.31
323.15 K, x2 = 0.8509 | 2.4 | –
323.15 K, x2 = 0.9 | 2.12 | 2.21
